Patent US20100167397A1, “ENDOCRINE CELL LINES AND METHOD OF USING THE SAME” (KYOWA HAKKO KOGYO CO., LTD., priority 2002, published 2010)
Each block holds one compound with its values, some of them ahead of it. No end group written: not given here.

Tests used:
[1] = system: GBCRC6 to which control vector (pAGal9-d) was transfected; assay: Control: GBCRC6 to which control vector (pAGal9-d) was transfected; assay type: cell-based, human
Excerpt: (§1) According to the method mentioned in (1) of Example 21, pAGal9-G10d was transfected to GBCRC6 to prepare stable transformants. […] It is possible to screen an antagonist for G10d using α-MSH or ACTH as an agonist.

[2] = target: T1, G10d (Homo sapiens, UniProt O15218); assay: Screening of ligands or agonists of G10d (pAGal9-G10d in GBCRC6, Renilla luciferase); assay type: cell-based; settings: 6 hours
T1 construct: expressed in transfected cells; host or cells: GBCRC6 (Namalwa KJM-1 derived)
Method: According to the method mentioned in (1) of Example 20, the G10d gene was prepared by PCR and the gene was inserted in an expression vector pAGal9-d to construct pAGal9-G10d which is an inducible expression plasmid of G10d. With regard to a template, single-stranded DNAs derived from human spleen were used. With regard to the G10d gene-specific primers, synthetic DNAs having sequences mentioned in SEQ ID NOS: 185 and 186 were used. To the above primers, a HindIII site and a NotI site were introduced, respectively.
A PCR-amplified fragment was cleaved with HindIII and NotI to prepare a HindIII-NotI fragment. A plasmid pAGal9-d was cleaved with HindIII and NotI to prepare a HindIII-NotI fragment.
as §1

[3] = target: T2, GPR43 (Homo sapiens, UniProt O15552); assay: Screening ligands or agonists of GPR43 (pAGal9-GPR43 in GBCRC6, Renilla luciferase); assay type: cell-based; settings: 100 μmol/L; 6 hours
T2 construct: expressed in transfected cells; host or cells: GBCRC6 (Namalwa KJM-1 derived, co-expressing Gαs-q and Gαs-i)
T2 sequence (O15552 1-330): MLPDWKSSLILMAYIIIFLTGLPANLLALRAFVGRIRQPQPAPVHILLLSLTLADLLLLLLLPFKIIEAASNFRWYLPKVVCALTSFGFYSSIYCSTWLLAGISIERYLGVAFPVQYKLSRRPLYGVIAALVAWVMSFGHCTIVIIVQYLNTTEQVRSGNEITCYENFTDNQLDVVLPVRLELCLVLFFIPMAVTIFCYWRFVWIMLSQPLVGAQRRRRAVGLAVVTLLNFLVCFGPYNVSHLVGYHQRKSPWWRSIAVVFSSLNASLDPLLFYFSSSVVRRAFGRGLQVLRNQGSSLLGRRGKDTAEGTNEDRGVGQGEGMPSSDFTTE
Method: According to the method mentioned in (1) of Example 20, the GPR43 gene was prepared by PCR and the gene was inserted in an expression vector pAGal9-d to construct pAGal9-GPR43 which is an inducible expression plasmid of GPR43. With regard to a template, human chromosomal DNA (100 ng; manufactured by Clontech) was used. With regard to the GPR43 gene-specific primers, synthetic DNA having sequences mentioned in SEQ ID NOS: 181 and 182, respectively, were used. A HindIII site and a NotI site were introduced to the above primers, respectively.
PCR-amplified fragment was cleaved with HindIII and NotI to prepare a HindIII-NotI fragment. A plasmid pAGal9-d was cleaved with HindIII and NotI to prepare a HindIII-NotI fragment.
According to the method mentioned in (1) of Example 21, pAGal9-GPR43 was transfected to GBCRC6 to prepare stable transformants.

[4] = target: T3, GPR41 (Homo sapiens, UniProt O14843); assay: Screening of ligands or agonists of GPR41 (pAGal9-GPR41 in GBCRC6, Renilla luciferase); assay type: cell-based; settings: for induction ratio of the reporters (agonist for GPR41): 100 μmol/L, 6 hours
T3 construct: expressed in transfected cells; host or cells: GBCRC6 (Namalwa KJM-1 derived)
T3 sequence (O14843 1-346): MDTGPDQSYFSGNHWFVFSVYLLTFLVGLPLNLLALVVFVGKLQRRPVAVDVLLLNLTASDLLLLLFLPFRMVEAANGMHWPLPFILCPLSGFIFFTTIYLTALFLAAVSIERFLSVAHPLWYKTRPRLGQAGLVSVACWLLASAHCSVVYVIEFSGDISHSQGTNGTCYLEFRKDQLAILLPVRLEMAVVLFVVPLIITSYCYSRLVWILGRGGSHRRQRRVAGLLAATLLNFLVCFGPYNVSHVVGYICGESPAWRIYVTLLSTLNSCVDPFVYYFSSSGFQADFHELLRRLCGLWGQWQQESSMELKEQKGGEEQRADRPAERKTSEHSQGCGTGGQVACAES
Method: With regard to a template, human chromosomal DNA (100 ng; manufactured by Clontech) was used. With regard to the GPR41 gene-specific primers, synthetic DNAs having sequences mentioned in SEQ ID NOS: 183 and 184, respectively, were used. To the above primers, a HindIII site and a NotI site were introduced, respectively. A PCR-amplified fragment was cleaved with HindIII and NotI to prepare a HindIII-NotI fragment. A plasmid […] was cleaved with HindIII and NotI to prepare a HindIII-NotI fragment. The HindIII-NotI fragment derived from PCR fragment and the HindIII-NotI fragment derived from […] were ligated to construct pAGal9-GPR41 which was an inducible expression plasmid of GPR41.

[5] = target: T4, melanocortin receptor type 1 (MC1R) (Homo sapiens, UniProt Q01726); assay: MC1R reporter assay in GBCR2 (pAGal9-MC1R), Renilla reniformis luciferase; assay type: cell-based; settings: GBCR2 with pAGal9-MC1R, 17β-estradiol 10 nmol/L 24 hours; various concentrations, 6 hours
T4 construct: expressed in transfected cells; host or cells: GBCR2 (Namalwa KJM-1 derived)
Method: One of the plasmids was named pAGal9-MC1R. The nucleotide sequence was determined by the method mentioned in the above (2).
According to the method mentioned in (1) of Example 21, pAGal9-MC1R was transfected to GBCR2 to prepare stable transformants.

[6] = system: other GPCRs; assay: Specificity: assay cells to which other GPCRs were transfected; assay type: cell-based
[7] = system: CRE reporter in KJMGER8; assay: Constitutive activity of GPCR, Method 5 (KJMGER8 co-transfected with pACREpluc, firefly luciferase); assay type: cell-based, human; settings: 17β-estradiol 10 nmol/L, 1 day, activity with divided by activity without, control plasmid about 1
Method: After the cultivation, firefly luciferase activity was measured. […] It is judged that the higher the induction ratio of the cells to which a GPCR expression plasmid was transfected, the stronger the constitutive activity of the GPCR.

[8] = system: GPR12; assay: Host clone selection: inducible expression of GPR12 (pAGal9-GPR12) by 17β-estradiol, CRE-luciferase readout; assay type: cell-based; settings: 24 hours; for rising rate of luciferase activity upon addition of 17β-estradiol: 10 nmol/L, firefly luciferase
Method: To the 8 clones was transfected pAGal9-GPR12 [a plasmid for inducible expression of GPR12 which is a constitutively activated G-protein coupled receptor: refer to Example 22 which will be mentioned later] by the above electroporation method using 4 μg to 6×10^6 cells to prepare transformants.
pAGal9-GPR12 was transfected to the 2 clones to prepare stable transformants.

[9] = system: gene expression via CRE; assay: CRE-luciferase reporter stimulation in Namalwa KJM-1 / KJMGER8 cells carrying pACREpluc or pACRERluc; assay type: cell-based, human
Method: A reporter plasmid pACREpluc was dissolved in a TE buffer so as to make 1 μg/μl and the plasmid was transfected to Namalwa KJM-1 cells by an electroporation method [Cytotechnology, 3, 133 (1990)] using 4 μg to 6×10^6 cells to give transformants.
The transformants were subcultured in RPMI 1640-ITPSG medium containing hygromycin B (300 μg/ml).
In order to confirm whether gene expression via CRE took place, the transformants were stimulated under the following condition using 5′-N-ethylcarboxamide adenosine (NECA: manufactured by Sigma) which is an agonist of type 2a adenosine receptor (A2a), forskolin (manufactured by Sigma) which is an activator for adenylate cyclase or A23187 (manufactured by Research Biochemicals International) which is a calcium ionophore.
Thus, the above stable transformants were dispensed in an amount of 1×10^5 cells per well of a 48-well plate, then NECA (final concentration 100 nmol/L), forskolin (final concentration 100 μmol/L) or A23187 (final concentration 10 μmol/L) was added and stimulation was conducted by incubating in a CO2 incubator for 5 hours.
Accordingly, when the cells are stimulated by any substance, it is believed to be preferred to measure the activity after 6 hours from the stimulation.
After the incubation, firefly luciferase activity in each well was measured using the method mentioned in (4) of Example 18. With regard to a device for the measurement, Micro Lumat LB96P (manufactured by Berthold) was used. Seventeen clones having high activity were selected.
The 17 clones were used, stimulation with NECA was applied by the same manner as in the above (2), comparison with the case where no stimulation with NECA was conducted and 8 clones where luciferase activity rose to an extent of 60-fold or more were selected. Such 8 clones were named GBC1 to GBC8 respectively.
After that, coelenterazine h (Molecular Probes) (final concentration 250 nmol/L) was added to measure the activity of Renilla reniformis luciferase. For the measurement of the activity, a Wallac 1420 ARVOsx Multilable Counter (manufactured by Wallac Berthold Japan) was used. Nine clones having high activity were selected. The 9 clones were named GBCR1 to GBCR9, respectively.
With regard to the 9 clones, stimulation with NECA was conducted and, as compared with the case no stimulation with NECA was done, 2 clones where the activity of Renilla reniformis luciferase increased to an extent of not less than 18-fold were selected. The 2 clones were named GBCR1 and GBCR2, respectively.

T1 sequence (O15218 whole entry): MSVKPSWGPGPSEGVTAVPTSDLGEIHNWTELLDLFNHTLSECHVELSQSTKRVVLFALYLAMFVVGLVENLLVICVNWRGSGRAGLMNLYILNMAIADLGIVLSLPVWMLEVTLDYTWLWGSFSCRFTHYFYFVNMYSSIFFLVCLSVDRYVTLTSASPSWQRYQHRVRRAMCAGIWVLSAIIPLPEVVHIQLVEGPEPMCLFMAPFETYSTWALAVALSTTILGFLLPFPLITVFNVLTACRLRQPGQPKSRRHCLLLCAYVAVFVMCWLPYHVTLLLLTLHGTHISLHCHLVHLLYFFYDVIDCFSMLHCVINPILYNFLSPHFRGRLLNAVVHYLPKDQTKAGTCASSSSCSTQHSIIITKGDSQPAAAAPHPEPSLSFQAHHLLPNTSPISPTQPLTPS
T4 sequence (Q01726 whole entry): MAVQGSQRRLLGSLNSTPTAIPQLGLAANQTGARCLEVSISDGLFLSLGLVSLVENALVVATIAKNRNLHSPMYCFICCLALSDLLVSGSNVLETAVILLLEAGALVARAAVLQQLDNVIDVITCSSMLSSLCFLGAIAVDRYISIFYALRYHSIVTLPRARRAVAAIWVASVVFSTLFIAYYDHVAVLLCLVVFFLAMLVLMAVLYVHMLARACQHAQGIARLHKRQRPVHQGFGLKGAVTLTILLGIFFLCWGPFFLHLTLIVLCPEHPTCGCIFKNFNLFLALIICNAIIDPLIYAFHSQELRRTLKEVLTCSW

Compound: α-MSH: α-melanocyte-stimulating hormone
action on GBCRC6 to which control vector (pAGal9-d) was transfected [1]: did not act
induction ratio of the reporters (agonist for G10d) ([2]; 100 μmol/L of α-MSH): 10 fold

Compound: ACTH: adrenocorticotropic hormone (SYSMEHFRWGKPVGKKRRPVKVYPNGAEDESAEAFPLEF)
action on GBCRC6 to which control vector (pAGal9-d) was transfected [1]: did not act
induction ratio of the reporters (agonist for G10d) ([2]; 100 nmol/L of ACTH): 11 fold

Compound: CC(=O)O [acetic acid]
induction ratio of the reporter (agonist for GPR43) [3]: 4 fold
action on assay cells to which other GPCRs were transfected [6]: did not act
agonist activity to GPR41 [4]: did not show an agonist activity

Compound: CC(=O)O [acetate]
induction ratio of the reporter (agonist for GPR43) [3]: 9 fold

Compound: CCNC(=O)[C@H]1O[C@@H](n2cnc3c(N)ncnc32)[C@H](O)[C@@H]1O [NECA, 5′-N-ethylcarboxamide adenosine]
increase of Renilla reniformis luciferase activity versus no stimulation ([9]; 2 clones GBCR1 and GBCR2 (KJMGER8 with integrated pACRERluc), NECA 100 nmol/L): not less than 18 fold
rise of firefly luciferase activity versus no stimulation ([9]; 8 clones GBC1 to GBC8 (KJMGER8 with integrated pACREpluc), NECA stimulation): ≥ 60 fold
increase of firefly luciferase activity ([9]; Namalwa KJM-1 with pACREpluc, NECA 100 nmol/L, 5 hours): about 7 fold
firefly luciferase activity after 24 hours ([9]; Namalwa KJM-1 with pACREpluc, compared with highest activity at 6 hours): decreased to an extent of nearly one half
time after stimulation at which firefly luciferase activity was highest ([9]; Namalwa KJM-1 with pACREpluc, measured after 6, 24, 48, 72 and 96 hours): 6 h

Further lines, with some results ahead:

induction ratio of the reporter (agonist for GPR43) [3]: 5 fold
induction ratio of the reporters (agonist for GPR41) [4]: 21 fold
Compound: CCC(=O)O [propionic acid]

concentration at which MC1R reacts (Renilla luciferase reporter) [5]: very low concentration
Compound: human PAMP-12: peptide consisting of the 9th to 20th amino acid residues from N terminal of PAMP (FRKKWNKWALSR; ends and bridges not checked; UniProt P35318 30-41, looked up, fragment)

induction ratio of the reporters (agonist for GPR41) [4]: 22 fold
Compound: O=C(O)C1CC1 [cyclopropanecarboxylic acid]
action on assay cells to which other GPCRs were transfected [6]: did not act

concentration at which MC1R reacts (Renilla luciferase reporter) [5]: very low concentration
Compound: human PAMP: peptide comprising 20 amino acids excised from a precursor protein of adrenomedullin (ARLDVASEFRKKWNKWALSR; ends and bridges not checked; UniProt P35318 22-41, looked up)

Constitutive Activity (induction ratio) [7]: 26-fold
Compound: GPR 26

Constitutive Activity (induction ratio) [7]: 6.5-fold
Compound: GPR 3

rising rate of luciferase activity upon addition of 17β-estradiol ([8]; GBC5 with pAGal9-GPR12): 56 fold
rising rate of luciferase activity upon addition of 17β-estradiol ([8]; GBC6 with pAGal9-GPR12): 193 fold
rising rate of luciferase activity upon addition of 17β-estradiol ([8]; GBC7 with pAGal9-GPR12): 364 fold
rising rate of Renilla reniformis luciferase activity when 17β-estradiol was added ([8]; GBCR2 with pAGal9-GPR12): 364 fold
Compound: C[C@]12CC[C@@H]3c4ccc(O)cc4CC[C@H]3[C@@H]1CC[C@@H]2O [17β-estradiol]
